Results as given in US20260217693A1, “SRPK1 INHIBITORS AND METHODS OF USE” (ALLIANTHERA (SUZHOU) BIOPHARMACEUTICAL CO., LTD., priority 2023, published 2026).

Molecular target: SRPK1 (Homo sapiens, UniProt Q96SB4)
Experiment: SRPK1 assay, Method 1 (ADP-Glo luminescence)
Assay type: biochemical
Details: Method 1 (no asterisk): substrate Human SRSF1/SF2, 25° C. for 90 min, test compounds 30 μM top, 3-fold, duplicate
Protocol: The SPRK1 assay was performed as follows:
Method 1: The assay buffer was prepared. The reference compound was diluted to 10 mM. The test compounds were prepared at a concentration of 30 mM. Fifteen nL of compounds/DMSO were transferred to a multi-well plate. Then, 7.5 ul enzyme SRPK1 was added to each well, the plate was spun down at 1000 rpm and centrifuged for 30 sec. Then, 7.5 ul substrate Human SRSF1/SF2 was added to each well, the plate spun down at 1000 rpm and centrifuged for 30 sec. The plate was then incubated at 25° C. for 90 min. After 90 min, 5 μl of ADP-Glo™ Reagent was added to each well and the plate incubated at room temperature for 60 minutes. Then, 10 μl of Kinase Detection Reagent was added to each well and the plate incubate at room temperature for 60 minutes. The luminescence of each well was recorded on Envision. The test compounds were at 30 μM top, 3-fold, in duplicate, and the final concentration of DMSO was 0.1%.
All assays were performed using Method 1, except where indicated with an asterisk (*) in the below table, indicating Method 2 was used.

Sequence of SRPK1 (Q96SB4 whole entry): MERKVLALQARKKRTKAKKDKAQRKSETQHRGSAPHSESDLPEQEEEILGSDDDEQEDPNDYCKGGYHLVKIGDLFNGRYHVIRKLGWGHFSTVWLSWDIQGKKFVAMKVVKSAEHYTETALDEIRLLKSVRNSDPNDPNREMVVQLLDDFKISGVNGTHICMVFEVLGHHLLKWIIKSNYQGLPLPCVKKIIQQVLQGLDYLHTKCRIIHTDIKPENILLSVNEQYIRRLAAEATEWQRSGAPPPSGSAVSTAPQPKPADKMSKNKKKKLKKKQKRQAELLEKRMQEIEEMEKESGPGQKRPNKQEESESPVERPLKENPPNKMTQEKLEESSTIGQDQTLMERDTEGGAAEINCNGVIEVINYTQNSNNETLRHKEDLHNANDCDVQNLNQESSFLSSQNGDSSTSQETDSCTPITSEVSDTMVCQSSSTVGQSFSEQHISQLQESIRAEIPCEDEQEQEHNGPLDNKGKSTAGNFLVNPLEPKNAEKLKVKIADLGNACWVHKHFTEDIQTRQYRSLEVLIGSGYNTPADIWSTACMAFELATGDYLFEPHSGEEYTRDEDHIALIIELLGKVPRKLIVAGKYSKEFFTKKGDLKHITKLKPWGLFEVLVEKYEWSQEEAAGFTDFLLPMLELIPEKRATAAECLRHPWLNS

SMILES | IC50 [nM]
CC(=O)OC1CC2(CCN(c3ncc(C(F)(F)F)cc3NC(=O)c3ccc(C4CCOCC4)o3)CC2)C1 [Compound 059] | 78.7
O=C(Nc1cc(C(F)(F)F)cnc1N1CCC(O)CC1)c1cccnc1 [Compound 051] | > 30000
O=C(Nc1cc(C(F)(F)F)cnc1-c1cn[nH]c1)c1ccc(C2CCOCC2)o1 [Compound 012] | 109
O=C(Nc1cc(C(F)(F)F)cnc1N1CCC(O)CC1)c1ccc(-c2ccncc2)o1 [Compound 004, N-(2-(4-hydroxypiperidin-1-yl)-5-(trifluoromethyl)pyridin-3-yl)-5-(pyridine-4-yl) furan-2-carboxamide] | 79
CC1(C(=O)O)CCN(c2ncc(C(F)(F)F)cc2NC(=O)c2ccc(C3CCOCC3)o2)CC1 [Compound 044] | 154
O=C(Nc1cc(C(F)(F)F)cnc1N1CCC(O)CC1)c1ccc(C2CCOCC2)o1 [Compound 005] | 41.9
O=C(Nc1cc(C(F)(F)F)cnc1N1CCSCC1)c1ccc(C2CCOCC2)o1 [Compound 041] | > 30000
O=C(Nc1cc(C(F)(F)F)cnc1-c1cccnc1)c1ccc(C2CCOCC2)o1 [Compound 009] | > 30000
O=C(Nc1cc(C(F)(F)F)cnc1N1CCC(O)CC1)c1ccc(-c2cnccn2)o1 [Compound 074, N-(2-(4-hydroxypiperidin-1-yl)-5-(trifluoromethyl)pyridin-3-yl)-5-(pyrazin-2-yl) furan-2-carboxamide] | 641
CN1CCC(c2ncc(C(F)(F)F)cc2NC(=O)c2ccc(C3CCOCC3)o2)CC1 [Compound 071, N-(2-(1-methylpiperidin-4-yl)-5-(trifluoromethyl)pyridin-3-yl)-5-(tetrahydro-2H-pyran-4-yl) furan-2-carboxamide] | 6870
O=C(Nc1cc(C(F)(F)F)cnc1C1CCNCC1)c1ccc(C2CCOCC2)o1 [Compound 062] | > 30000
O=C(Nc1cc(C(F)(F)F)cnc1N1CCN(Cc2ccccn2)CC1)c1ccc(C2CCOCC2)o1 [Compound 002, N-(2-(4-(pyridin-2-ylmethyl)piperazin-1-yl)-5-(trifluoromethyl)pyridin-3-yl)-5-(tetrahydro-2H-pyran-4-yl) furan-2-carboxamide] | 309
O=C(Nc1cc(C(F)(F)F)cnc1N1CCC(O)CC1)c1ccc(-c2ccnc(F)c2)o1 [Compound 016] | > 30000
C[C@H]1C[C@@H](O)CCN1c1ncc(C(F)(F)F)cc1NC(=O)c1ccc(C2CCOCC2)o1 [Compound 075] | 13.1
CNC(=O)C1(C)CCN(c2ncc(C(F)(F)F)cc2NC(=O)c2ccc(C3CCOCC3)o2)CC1 [Compound 057] | 30.5
O=C(Nc1cc(C(F)(F)F)cnc1N1CCS(=O)(=O)CC1)c1ccc(C2CCOCC2)o1 [Compound 042] | > 30000
O=C(Nc1cc(C(F)(F)F)cnc1N1CCC(CO)C1)c1ccc(C2CCOCC2)o1 (stereo not drawn) [Compound 038] | 24500

SMILES | IC50 [nM]
O=C(Nc1cc(C2CC2)cnc1N1CCC(O)CC1)c1ccc(C2CCOCC2)o1 [Compound 029] | 30.9
O=C(Nc1cc(C(F)(F)F)cnc1N1CCC(O)CC1)c1ccc(-c2cccnc2)o1 [Compound 056] | 23.5
O=C(Nc1cc(C(F)(F)F)cnc1N1CCC(O)C1)c1ccc(C2CCOCC2)o1 (stereo not drawn) [Compound 035] | > 30000
Cn1cc(-c2ncc(C(F)(F)F)cc2NC(=O)c2ccc(C3CCOCC3)o2)cn1 [Compound 011] | 7490
CC(=O)OC1CCN(c2ncc(C3CC3)cc2NC(=O)c2ccc(C3CCOCC3)o2)CC1 [Compound 028] | 105
O=C(Nc1cc(Cl)cnc1N1CCC(O)CC1)c1ccc(C2CCOCC2)o1 [Compound 007] | 252
O=C(Nc1cc(C(F)(F)F)cnc1N1CCOCC1)c1ccc(C2CCOCC2)o1 [Compound 037] | > 30000
O=C(Nc1cc(C(F)(F)F)cnc1-c1ccn[nH]1)c1ccc(C2CCOCC2)o1 [Compound 019] | 217
O=C(Nc1cc(C(F)(F)F)cnc1-c1cn[nH]c1)c1ccc(-c2ccncc2)o1 [Compound 014] | > 30000
CC1(CN)CCN(c2ncc(C(F)(F)F)cc2NC(=O)c2ccc(C3CCOCC3)o2)CC1 [Compound 043] | > 30000
O=C(Nc1cc(C(F)(F)F)cnc1N1CCCC(O)C1)c1ccc(C2CCOCC2)o1 (stereo not drawn) [Compound 072] | 754
CC1(O)CCN(c2ncc(Cl)cc2NC(=O)c2ccc(C3CCOCC3)o2)CC1 [Compound 025] | 170
O=C(Nc1cc(C(F)(F)F)cnc1N1CC(O)C1)c1ccc(C2CCOCC2)o1 [Compound 039] | > 30000
O=C(Nc1cc(C(F)(F)F)cnc1-c1ccccc1)c1ccc(C2CCOCC2)o1 [Compound 008] | > 30000
CC1(O)CCN(c2ncc(C(F)(F)F)cc2NC(=O)c2ccc(C3CCOCC3)o2)CC1 [Compound 027, N-[2-(4-hydroxy-4-methyl-1-piperidyl)-5-(trifluoromethyl)-3-pyridyl]-5-tetrahydropyran-4-yl-furan-2-carboxamide] | 36.7
CN1CCN(c2ncc(C(F)(F)F)cc2NC(=O)c2ccc(-c3ccncc3)o2)CC1 [Compound 003] | 971

The next lines start with the values.

IC50 [nM] | SMILES
> 30000 | O=C(Nc1cc(C(F)(F)F)cnc1N1CCC(O)CC1)c1cnn(C2CCOCC2)c1 [Compound 101]
> 30000 | O=C(Nc1cc(C2CC2)cnc1N1CCC(O)CC1)c1ccc(-c2cn[nH]c2)cn1 [Compound 125]
> 30000 | O=C(Nc1cc(C(F)(F)F)cnc1N1CCC(O)CC1)c1ccc(-c2cn[nH]c2)cc1 [Compound 129]
55.5 | O=C(Nc1cc(C(F)(F)F)cnc1N1CCC2(CCOC2=O)CC1)c1ccc(C2CCOCC2)o1 [Compound 082]
878 | O=C(Nc1cc(C(F)(F)F)cnc1N1CCC(O)CC1)c1ccc(F)cn1 [Compound 089]
1260 | O=C(Nc1cc(C(F)(F)F)cnc1N1CCC(O)CC1)c1ccc(Cl)cn1 [Compound 093]
210 | CC1(O)CCN(c2ncc(C3CC3)cc2NC(=O)c2ccc(C3CCOCC3)o2)CC1 [Compound 137, N-(5-Cyclopropyl-2-(4-hydroxy-4-methylpiperidin-1-yl)pyridin-3-yl)-5-(tetrahydro-2H-pyran-4-yl) furan-2-carboxamide]
36 | CC1(O)CCN(c2ncc(C3CC3)cc2NC(=O)c2ccc(-c3ccncc3)o2)CC1 [Compound 136, N-(5-cyclopropyl-2-(4-hydroxy-4-methylpiperidin-1-yl)pyridin-3-yl)-5-(pyridin-4-yl) furan-2-carboxamide]
> 30000 | C[C@@H]1C[C@H](O)CCN1c1ncc(C2CC2)cc1NC(=O)c1ccc(Br)o1 [Compound 126]
> 30000 | Nc1cc(-c2ccc(C(=O)Nc3cc(C(F)(F)F)cnc3N3CCc4[nH]ncc4C3)o2)cc(N)n1 [Compound 130]
71.7 | NC(=O)C1CCN(c2ncc(C(F)(F)F)cc2NC(=O)c2ccc(C3CCOCC3)o2)CC1 [Compound 088]
39.4 | C[C@@H]1C[C@H](O)CCN1c1ncc(C(F)(F)F)cc1NC(=O)c1ccc(-c2ccnc(N)c2)o1 [Compound 111]
14.8 | O=C(Nc1cc(C(F)(F)F)cnc1N1CCC(O)CC1)c1ccc(-c2cn[nH]n2)o1 [Compound 108]
> 30000 | C[C@@H]1C[C@@H](O)CCN1c1ncc(C2CC2)cc1NC(=O)c1ccc(-c2cc(N)nc(N)c2)o1 [Compound 134]
> 30000 | O=C(Nc1cc(C(F)(F)F)cnc1N1CCC(O)CC1)c1cc(Cl)ccn1 [Compound 091]
344 | CC1C[C@@H](O)CCN1c1ncc(C(F)(F)F)cc1NC(=O)c1ccc(-c2ccncc2)o1 (stereo in doubt) [Compound 080, N-(2-((2S,4S)-4-hydroxy-2-methylpiperidin-1-yl)-5-(trifluoromethyl)pyridin-3-yl)-5-(pyridin-4-yl) furan-2-carboxamide]
39.8 | O=C(Nc1cc(C(F)(F)F)cnc1N1CCC(CO)CC1)c1ccc(C2CCOCC2)o1 [Compound 083]
1530 | O=C(Nc1cc(C(F)(F)F)cnc1N1CCC(O)CC1)c1ccc(-c2nc[nH]n2)o1 [Compound 105]
> 30000 | C#Cc1ccc(C(=O)Nc2cc(C(F)(F)F)cnc2N2CCC(O)CC2)o1 [Compound 117]
18.3 | NC(=O)C1(O)CCN(c2ncc(C(F)(F)F)cc2NC(=O)c2ccc(C3CCOCC3)o2)CC1 [Compound 096, 4-hydroxy-1-[3-[(5-tetrahydropyran-4-ylfuran-2-carbonyl)amino]-5-(trifluoromethyl)-2-pyridyl]piperidine-4-carboxamide]
> 30000 | Nc1cc(-c2ccc(C(=O)Nc3cc(C4CC4)cnc3N3CCc4[nH]ncc4C3)o2)cc(N)n1 [Compound 131]
> 30000 | C[C@@H]1C[C@@H](O)CCN1c1ncc(C2CC2)cc1NC(=O)c1ccc(-c2ccnc(N)c2)o1 [Compound 119]
215 | O=C1CCC2(CCN(c3ncc(C(F)(F)F)cc3NC(=O)c3ccc(C4CCOCC4)o3)CC2)N1 [Compound 081]
136 | O=C(Nc1cc(C(F)(F)F)cnc1N1CCC(O)CC1)c1ccn(C2CCOCC2)n1 [Compound 103]
142 | Nc1n[nH]cc1-c1ccc(C(=O)Nc2cc(C(F)(F)F)cnc2N2CCC(O)CC2)o1 [Compound 106, 5-(3-amino-1H-pyrazol-4-yl)-N-[2-(4-hydroxy-1-piperidyl)-5-(trifluoromethyl)-3-pyridyl]furan-2-carboxamide]
16.1 | C[C@@H]1C[C@H](O)CCN1c1ncc(C(F)(F)F)cc1NC(=O)c1ccc(-c2cn[nH]c2)o1 [Compound 110]
> 30000 | O=C(Nc1cc(C2CC2)cnc1N1CCc2[nH]ncc2C1)c1ccc(Br)o1 [Compound 120]
